According to patent US20060293360A1, “4-(2-Phenyloxyphenyl)-piperidine or-1,2,3,6-tetrahydropyridine derivatives as serotonin reuptake inhibitors” (H. Lundbeck A/S, priority 2003, published 2006):

Legend:
[1] = molecular target: T1, serotonin reuptake ([3H]-5-HT uptake into rat cortical synaptosomes) (Rattus norvegicus, UniProt P31652); experiment: [3H]-5-HT uptake into rat cortical synaptosomes; assay type: biochemical; settings: result in words
T1 construct: Whole brains from male Wistar rats (125-225 g), excluding cerebellum, are homogenized; from tissue; host or cells: synaptosomal fraction of whole brain (excluding cerebellum) from male Wistar rats
Protocol: Measurements of [^3H]-5-HT Uptake into Rat Cortical Synaptosomes.
Whole brains from male Wistar rats (125-225 g), excluding cerebellum, are homogenized in 0.32 M sucrose supplemented with 1 mM nialamid with a glass/teflon homogenizer. The homogenate is centrifuged at 600×g for 10 min at 4° C. The pellet is discarded and the supernatant is centrifuged at 20.000×g for 55 min. The final pellet is homogenized (20 sec) in this assay buffer (0.5 mg original tissue/well). Test compounds (or buffer) and 10 nM [^3H]-5-HT are added to 96 well plates and shaken briefly. 10 Composition of assay buffer: 123 mM NaCl, 4.82 mM KCl, 0.973 mM CaCl2, 1.12 mM MgSO4, 12.66 mM Na2HPO4, 2.97 mM NaH2PO4, 0.162 mM EDTA, 10 mM glucose and 1 mM ascorbic acid. Buffer is oxygenated with 95% 02/5% C02 for 10 min at 37° C. and pH is adjusted 7.4. The incubation is started by adding tissue to a final assay volume of 0.2 mL. After 15 min incubation with radioligand at 37° C., samples are filtered 15 directly on Unifilter GF/C glass fiber filters (soaked for 1 hour in 0.1% polyethylenimine) under vacuum and immediately washed with 3×0.2 ml assay buffer. Non-specific uptake is determined using citalopram (10 μM final concentration). Citalopram is included as reference in all experiments as dose-response curve.

[2] = molecular target: T2, norepinephrine uptake ([3H]-noradrenaline uptake into rat cortical synaptosomes) (Rattus norvegicus, UniProt Q9WTR4); experiment: [3H]Noradrenaline uptake into rat cortical synaptosomes; assay type: biochemical; settings: result in words
T2 construct: Fresh cortex from male Wistar rats (125-225 g) are homogenized in 0.4M sucrose; from tissue; host or cells: synaptosomal fraction of fresh cortex from male Wistar rats
Protocol: Measurements of [^3 H]Noradrenaline Uptake into Rat Cortical Synaptosomes.
Fresh cortex from male Wistar rats (125-225 g) are homogenized in 0.4M sucrose with a glass/teflon homogenizer. The homogenate is centrifuged at 600×g for 10 min at 4° C. The pellet is discarded and the supernatant is centrifuged at 20.000×g for 55 min. The final pellet is homogenized (20 sec) in this assay buffer (6 mg original tissue/mL=[…]). Test compounds (or buffer) and 10 nM [^3H]-noradrenaline are added to deep 96 well plates and shaken briefly. Composition of assay buffer: 123 mM NaCl, 4.82 mM 1Cl, 0.973 mM CaCl2, 1.12 mM MgSO4, 12.66 MM Na2HPO4, 2.97 MM NaH2PO4, 0.162 mM EDTA, 10 mM glucose and 1 mM ascorbic acid. Buffer is oxygenated with 95% 02/5% C02 for 10 min at 37° C. and pH is adjusted 7.4. The incubation is started by adding tissue to a final assay volume of 1 ml. After 15 min incubation with radioligand at 37° C., samples are filtered directly on Unifilter GF/C glass fiber filters (soaked for 1 hour in 0.1% polyethylenimie) under vacuum and immediately washed with 3×1 mL assay buffer. Non-specific uptake is determined using talsupram ([…] final concentration). Duloxetine is included as reference in all experiments as dose-response curve.

T2 sequence (Q9WTR4 1-597): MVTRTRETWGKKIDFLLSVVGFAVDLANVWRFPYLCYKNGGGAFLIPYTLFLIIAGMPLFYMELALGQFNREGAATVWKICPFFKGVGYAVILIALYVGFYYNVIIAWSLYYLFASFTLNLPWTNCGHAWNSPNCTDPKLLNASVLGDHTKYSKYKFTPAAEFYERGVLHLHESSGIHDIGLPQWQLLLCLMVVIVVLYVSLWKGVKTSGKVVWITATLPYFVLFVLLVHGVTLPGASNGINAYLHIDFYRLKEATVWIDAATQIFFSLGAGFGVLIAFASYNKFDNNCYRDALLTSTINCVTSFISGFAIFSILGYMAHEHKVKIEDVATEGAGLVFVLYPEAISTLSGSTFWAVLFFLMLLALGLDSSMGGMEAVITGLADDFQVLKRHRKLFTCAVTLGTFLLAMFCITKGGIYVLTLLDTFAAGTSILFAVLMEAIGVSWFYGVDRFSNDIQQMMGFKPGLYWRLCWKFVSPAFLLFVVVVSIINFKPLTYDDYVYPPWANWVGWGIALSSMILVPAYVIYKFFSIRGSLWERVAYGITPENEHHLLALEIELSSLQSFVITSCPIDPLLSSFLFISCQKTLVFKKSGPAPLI
T1 sequence (P31652 whole entry): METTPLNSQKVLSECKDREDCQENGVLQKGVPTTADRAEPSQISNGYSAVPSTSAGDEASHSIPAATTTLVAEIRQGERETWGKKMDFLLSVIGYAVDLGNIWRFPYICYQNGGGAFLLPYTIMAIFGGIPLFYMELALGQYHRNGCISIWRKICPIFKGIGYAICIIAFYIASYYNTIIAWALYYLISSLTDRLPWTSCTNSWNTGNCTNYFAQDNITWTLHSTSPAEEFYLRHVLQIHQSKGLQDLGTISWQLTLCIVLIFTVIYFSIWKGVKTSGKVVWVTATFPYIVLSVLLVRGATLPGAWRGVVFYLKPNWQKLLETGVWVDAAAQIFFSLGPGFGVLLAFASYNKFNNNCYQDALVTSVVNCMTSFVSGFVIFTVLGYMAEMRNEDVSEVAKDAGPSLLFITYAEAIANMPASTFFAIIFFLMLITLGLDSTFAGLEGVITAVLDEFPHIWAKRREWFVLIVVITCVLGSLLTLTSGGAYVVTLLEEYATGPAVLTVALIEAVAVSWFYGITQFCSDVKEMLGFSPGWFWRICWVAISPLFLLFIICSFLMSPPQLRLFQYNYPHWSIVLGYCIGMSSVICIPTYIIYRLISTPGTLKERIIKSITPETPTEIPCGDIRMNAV

SMILES | serotonin reuptake inhibition [1] | norepinephrine uptake inhibition [2]
Cc1ccc(Oc2ccccc2C2=CCNCC2)c(C)c1 [1a, 4-[2-(2,4-Dimethylphenoxy)phenyl]-1,2,3,6-tetrahydropyridine] | did show serotonin reuptake inhibition | did not show norepinephrine uptake inhibition
Clc1ccc(Oc2ccccc2C2=CCNCC2)cc1 [1b, 4-[2-(4-Chlorophenoxy)phenyl]-1,2,3,6-tetrahydropyridine] | did show serotonin reuptake inhibition | did not show norepinephrine uptake inhibition
Cc1cc(F)ccc1Oc1ccccc1C1=CCNCC1 [1c, 4-[2-(4-Fluoro-2-methylphenoxy)phenyl]-1,2,3,6-tetrahydropyridine] | did show serotonin reuptake inhibition | did not show norepinephrine uptake inhibition
Fc1ccc(Oc2ccccc2C2=CCNCC2)cc1 [1d, 4-[2-(4-Fluorophenoxy)phenyl]-1,2,3,6-tetrahydropyridine] | did show serotonin reuptake inhibition | did not show norepinephrine uptake inhibition
Cc1ccc(Oc2ccccc2C2=CCNCC2)cc1 [1e, 4-[2-(4-Methylphenoxy)phenyl]-1,2,3,6-tetrahydropyridine] | did show serotonin reuptake inhibition | did not show norepinephrine uptake inhibition
COc1ccc(Oc2ccccc2C2=CCNCC2)cc1 [1f, 4-[2-(4-Methoxyphenoxy)phenyl]-1,2,3,6-tetrahydropyridine] | did show serotonin reuptake inhibition | did not show norepinephrine uptake inhibition
Cc1ccc(Oc2ccccc2C2CCNCC2)cc1C [3h, 4-[2-(3,4-Dimethyl-phenoxy)-phenyl]-piperidine] | did show serotonin reuptake inhibition | did not show norepinephrine uptake inhibition
Cc1cc(Oc2ccccc2C2CCNCC2)c(C)c(C)c1C [3i, 4-[2-(2,3,4,5-Tetramethyl-phenoxy)-phenyl]-piperidine] | did show serotonin reuptake inhibition | did not show norepinephrine uptake inhibition
COc1ccc(Oc2ccccc2C2CCNCC2)cc1OC [3m, 4-[2-(3,4-Dimethoxy-phenoxy)-phenyl]-piperidine] | did show serotonin reuptake inhibition | did not show norepinephrine uptake inhibition
